Like-named read-outs stand apart in the source and are kept apart here.
Columns and labels:
[1] = molecular target: T1, AVPR1A (Homo sapiens, UniProt P37288); experiment: Safety47 Calcium Flux AVPR1A; format: cell-based; conditions: for Emax: read-out: Max Response; for EC50: read-out: RC50 (EC50); for IC50: read-out: RC50 (IC50)
T1 construct: purchased Eurofins Panlab Safety47 Safety Scan

[2] = molecular target: T2, CCKAR (Homo sapiens, UniProt P32238); experiment: Safety47 Calcium Flux CCKAR; format: cell-based; conditions: for Emax: read-out: Max Response; for EC50: read-out: RC50 (EC50); for IC50: read-out: RC50 (IC50)
T2 construct: purchased Eurofins Panlab Safety47 Safety Scan
T2 sequence (P32238 1-428): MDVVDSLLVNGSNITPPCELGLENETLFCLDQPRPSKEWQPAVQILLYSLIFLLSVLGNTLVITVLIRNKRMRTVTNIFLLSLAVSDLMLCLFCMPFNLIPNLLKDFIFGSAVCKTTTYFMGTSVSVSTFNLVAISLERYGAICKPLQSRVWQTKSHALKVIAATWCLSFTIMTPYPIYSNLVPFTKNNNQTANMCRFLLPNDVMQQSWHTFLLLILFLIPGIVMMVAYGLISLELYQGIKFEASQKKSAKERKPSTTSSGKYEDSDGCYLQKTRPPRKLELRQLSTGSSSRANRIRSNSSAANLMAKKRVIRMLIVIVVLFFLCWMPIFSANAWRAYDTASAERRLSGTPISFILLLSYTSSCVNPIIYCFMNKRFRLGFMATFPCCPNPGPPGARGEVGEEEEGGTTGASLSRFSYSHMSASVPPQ

[3] = molecular target: T3, HRH1 (Homo sapiens, UniProt P35367); experiment: Safety47 Calcium Flux HRH1; format: cell-based; conditions: for Emax: read-out: Max Response; for EC50: read-out: RC50 (EC50); for IC50: read-out: RC50 (IC50)
T3 construct: purchased Eurofins Panlab Safety47 Safety Scan
T3 sequence (P35367 whole entry): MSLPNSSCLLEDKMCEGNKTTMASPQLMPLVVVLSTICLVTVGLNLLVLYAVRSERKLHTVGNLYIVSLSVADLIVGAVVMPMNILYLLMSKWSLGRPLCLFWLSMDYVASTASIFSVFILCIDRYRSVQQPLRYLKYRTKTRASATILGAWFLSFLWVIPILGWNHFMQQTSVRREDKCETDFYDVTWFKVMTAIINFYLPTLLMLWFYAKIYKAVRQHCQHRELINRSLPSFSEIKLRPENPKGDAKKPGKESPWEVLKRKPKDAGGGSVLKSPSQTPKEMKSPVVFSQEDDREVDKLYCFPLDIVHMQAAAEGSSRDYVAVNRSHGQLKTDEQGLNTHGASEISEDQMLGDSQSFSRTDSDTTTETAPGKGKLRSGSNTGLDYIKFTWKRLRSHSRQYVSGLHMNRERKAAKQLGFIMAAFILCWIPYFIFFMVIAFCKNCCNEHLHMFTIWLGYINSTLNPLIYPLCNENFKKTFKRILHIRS

[4] = molecular target: T4, HTR2A (Homo sapiens, UniProt P28223); experiment: Safety47 Calcium Flux HTR2A; format: cell-based; conditions: for Emax: read-out: Max Response; for EC50: read-out: RC50 (EC50); for IC50: read-out: RC50 (IC50)
T4 construct: purchased Eurofins Panlab Safety47 Safety Scan
T4 sequence (P28223 whole entry): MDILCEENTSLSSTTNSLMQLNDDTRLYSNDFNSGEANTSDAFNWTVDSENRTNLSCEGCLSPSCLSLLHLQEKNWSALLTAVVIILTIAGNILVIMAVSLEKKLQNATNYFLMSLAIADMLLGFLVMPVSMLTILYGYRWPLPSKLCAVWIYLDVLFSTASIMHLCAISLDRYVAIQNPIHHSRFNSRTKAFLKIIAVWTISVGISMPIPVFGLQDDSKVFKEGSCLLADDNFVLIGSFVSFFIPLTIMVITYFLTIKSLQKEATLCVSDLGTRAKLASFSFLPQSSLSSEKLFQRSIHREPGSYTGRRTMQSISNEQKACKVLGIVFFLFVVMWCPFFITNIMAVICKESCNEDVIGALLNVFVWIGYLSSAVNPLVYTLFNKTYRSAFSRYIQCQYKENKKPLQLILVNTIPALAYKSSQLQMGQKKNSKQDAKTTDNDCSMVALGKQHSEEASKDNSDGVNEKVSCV

[5] = molecular target: T5, CHRM2 (Homo sapiens, UniProt P08172); experiment: Safety47 cAMP CHRM2; format: cell-based; conditions: for Emax: read-out: Max Response; for EC50: read-out: RC50 (EC50); for IC50: read-out: RC50 (IC50)
T5 construct: purchased Eurofins Panlab Safety47 Safety Scan
T5 sequence (P08172 1-466): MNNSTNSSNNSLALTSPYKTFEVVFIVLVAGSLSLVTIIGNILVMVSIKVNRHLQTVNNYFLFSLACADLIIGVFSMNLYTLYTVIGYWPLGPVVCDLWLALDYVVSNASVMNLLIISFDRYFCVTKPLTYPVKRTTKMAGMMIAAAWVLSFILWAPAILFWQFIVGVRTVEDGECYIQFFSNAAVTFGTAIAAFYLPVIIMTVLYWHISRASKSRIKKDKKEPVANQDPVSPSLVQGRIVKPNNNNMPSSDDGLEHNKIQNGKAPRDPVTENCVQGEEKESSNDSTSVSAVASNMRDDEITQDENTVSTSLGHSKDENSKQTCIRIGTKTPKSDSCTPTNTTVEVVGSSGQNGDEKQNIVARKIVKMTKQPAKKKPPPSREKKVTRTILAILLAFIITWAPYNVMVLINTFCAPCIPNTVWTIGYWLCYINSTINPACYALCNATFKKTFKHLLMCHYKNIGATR

[6] = molecular target: T6, CNR1 (Homo sapiens, UniProt P21554); experiment: Safety47 cAMP CNR1; format: cell-based; conditions: for Emax: read-out: Max Response; for EC50: read-out: RC50 (EC50); for IC50: read-out: RC50 (IC50)
T6 construct: purchased Eurofins Panlab Safety47 Safety Scan
T6 sequence (P21554 whole entry): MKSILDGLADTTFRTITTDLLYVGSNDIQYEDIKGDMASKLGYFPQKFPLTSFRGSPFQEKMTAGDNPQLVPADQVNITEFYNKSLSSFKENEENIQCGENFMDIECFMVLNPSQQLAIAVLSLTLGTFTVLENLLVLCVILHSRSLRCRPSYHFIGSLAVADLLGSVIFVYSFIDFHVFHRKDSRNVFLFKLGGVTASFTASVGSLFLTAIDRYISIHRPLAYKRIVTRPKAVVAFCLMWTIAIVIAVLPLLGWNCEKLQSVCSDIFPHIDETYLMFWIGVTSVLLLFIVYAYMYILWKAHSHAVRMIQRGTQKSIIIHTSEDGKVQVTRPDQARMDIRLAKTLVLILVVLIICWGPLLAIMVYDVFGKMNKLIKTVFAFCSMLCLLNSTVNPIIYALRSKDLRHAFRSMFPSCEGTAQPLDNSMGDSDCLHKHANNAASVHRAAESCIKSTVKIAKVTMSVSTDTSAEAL

[7] = molecular target: T7, CNR2 (Homo sapiens, UniProt P34972); experiment: Safety47 cAMP CNR2; format: cell-based; conditions: for Emax: read-out: Max Response; for EC50: read-out: RC50 (EC50); for IC50: read-out: RC50 (IC50)
T7 construct: purchased Eurofins Panlab Safety47 Safety Scan
T7 sequence (P34972 whole entry): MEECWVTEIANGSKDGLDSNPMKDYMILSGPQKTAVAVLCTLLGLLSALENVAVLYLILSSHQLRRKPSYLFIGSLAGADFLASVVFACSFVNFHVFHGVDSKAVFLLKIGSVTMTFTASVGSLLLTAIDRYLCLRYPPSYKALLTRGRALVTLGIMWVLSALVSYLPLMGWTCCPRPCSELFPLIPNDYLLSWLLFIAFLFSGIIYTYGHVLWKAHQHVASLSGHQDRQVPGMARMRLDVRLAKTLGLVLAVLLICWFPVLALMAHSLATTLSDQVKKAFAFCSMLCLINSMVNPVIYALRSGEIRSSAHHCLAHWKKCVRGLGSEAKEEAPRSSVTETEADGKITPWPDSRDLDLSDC

[8] = molecular target: T8, HTR1A (Homo sapiens, UniProt P08908); experiment: Safety47 cAMP HTR1A; format: cell-based; conditions: for Emax: read-out: Max Response; for EC50: read-out: RC50 (EC50); for IC50: read-out: RC50 (IC50)
T8 construct: purchased Eurofins Panlab Safety47 Safety Scan
T8 sequence (P08908 1-422): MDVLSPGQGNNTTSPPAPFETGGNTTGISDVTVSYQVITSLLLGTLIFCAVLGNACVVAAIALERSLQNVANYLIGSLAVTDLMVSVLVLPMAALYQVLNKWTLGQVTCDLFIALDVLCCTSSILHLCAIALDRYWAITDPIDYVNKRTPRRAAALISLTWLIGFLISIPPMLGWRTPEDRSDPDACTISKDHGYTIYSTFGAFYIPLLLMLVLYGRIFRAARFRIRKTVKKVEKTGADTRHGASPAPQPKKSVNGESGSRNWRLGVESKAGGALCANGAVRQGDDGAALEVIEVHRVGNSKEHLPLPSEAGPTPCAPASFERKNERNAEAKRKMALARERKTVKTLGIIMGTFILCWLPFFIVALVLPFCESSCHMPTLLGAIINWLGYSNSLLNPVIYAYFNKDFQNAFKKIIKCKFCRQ

[9] = system: GABAA; experiment: Safety47 Ion Channel GABAA; format: cell-based; conditions: for IC50: read-out: RC50 (IC50); for EC50: read-out: RC50 (EC50)
[10] = molecular target: T9, NAV1.5 (Homo sapiens, UniProt Q14524); experiment: Safety47 Ion Channel NAV1.5; format: cell-based; conditions: Blocker; for Emax: read-out: Max Response; for IC50: read-out: RC50 (IC50)
T9 construct: purchased Eurofins Panlab (Safety47 Safety Scan, contract panel)

[11] = molecular target: T10, LCK (Homo sapiens, UniProt P06239); experiment: Safety47 Kinase Binding LCK; conditions: Kinases, Inhibitor; for Emax: read-out: Max Response; for IC50: read-out: RC50 (IC50)
T10 construct: purchased Eurofins Panlab (Safety47 Safety Scan, contract panel)

[12] = molecular target: T11, ROCK1 (Homo sapiens, UniProt Q13464); experiment: Safety47 Kinase Binding ROCK1; conditions: Kinases, Inhibitor; for Emax: read-out: Max Response; for IC50: read-out: RC50 (IC50)
T11 construct: purchased Eurofins Panlab (Safety47 Safety Scan, contract panel)
T11 sequence (Q13464 whole entry, species assumed): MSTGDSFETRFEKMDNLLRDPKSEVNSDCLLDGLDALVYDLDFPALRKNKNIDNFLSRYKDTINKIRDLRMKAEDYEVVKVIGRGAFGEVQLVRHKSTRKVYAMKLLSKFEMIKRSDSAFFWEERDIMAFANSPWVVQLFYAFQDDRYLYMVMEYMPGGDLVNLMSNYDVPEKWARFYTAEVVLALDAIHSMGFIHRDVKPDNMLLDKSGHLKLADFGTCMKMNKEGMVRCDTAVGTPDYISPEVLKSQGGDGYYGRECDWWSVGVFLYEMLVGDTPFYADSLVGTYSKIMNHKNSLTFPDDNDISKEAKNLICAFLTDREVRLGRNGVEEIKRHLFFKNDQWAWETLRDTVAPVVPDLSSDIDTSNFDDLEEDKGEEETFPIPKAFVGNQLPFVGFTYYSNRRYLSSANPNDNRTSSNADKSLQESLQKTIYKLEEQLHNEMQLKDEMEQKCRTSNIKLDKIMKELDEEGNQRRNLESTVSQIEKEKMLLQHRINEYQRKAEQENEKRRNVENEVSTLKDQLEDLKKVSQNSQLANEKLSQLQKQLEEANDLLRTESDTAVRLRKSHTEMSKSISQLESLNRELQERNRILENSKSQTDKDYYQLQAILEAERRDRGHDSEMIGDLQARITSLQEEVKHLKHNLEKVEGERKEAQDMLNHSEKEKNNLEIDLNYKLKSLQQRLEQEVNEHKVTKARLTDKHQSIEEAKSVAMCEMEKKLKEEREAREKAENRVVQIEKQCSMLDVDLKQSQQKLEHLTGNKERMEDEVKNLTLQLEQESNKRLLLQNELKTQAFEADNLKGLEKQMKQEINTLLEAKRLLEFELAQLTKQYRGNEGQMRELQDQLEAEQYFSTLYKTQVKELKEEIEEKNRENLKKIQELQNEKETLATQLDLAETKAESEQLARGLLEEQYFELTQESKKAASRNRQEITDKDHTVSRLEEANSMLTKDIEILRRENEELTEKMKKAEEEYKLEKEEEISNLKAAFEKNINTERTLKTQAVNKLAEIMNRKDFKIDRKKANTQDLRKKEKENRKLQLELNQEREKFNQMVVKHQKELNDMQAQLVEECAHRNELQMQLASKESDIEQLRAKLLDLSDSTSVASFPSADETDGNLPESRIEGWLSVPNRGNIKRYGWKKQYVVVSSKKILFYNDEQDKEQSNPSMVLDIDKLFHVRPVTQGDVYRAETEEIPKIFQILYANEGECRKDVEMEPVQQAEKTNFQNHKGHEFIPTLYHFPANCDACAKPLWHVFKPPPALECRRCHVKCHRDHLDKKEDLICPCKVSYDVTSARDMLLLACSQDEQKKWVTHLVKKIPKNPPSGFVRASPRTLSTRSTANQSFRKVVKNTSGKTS

[13] = molecular target: T12, VEGFR2 (Homo sapiens, UniProt P35968); experiment: Safety47 Kinase Binding VEGFR2; conditions: Kinases, Inhibitor; for Emax: read-out: Max Response; for IC50: read-out: RC50 (IC50)
T12 construct: purchased Eurofins Panlab (Safety47 Safety Scan, contract panel)

[14] = molecular target: T13, AChE (Homo sapiens, UniProt P22303); experiment: Safety47 Enzymatic AChE; format: biochemical; conditions: Inhibitor; for Emax: read-out: Max Response; for IC50: read-out: RC50 (IC50)
T13 construct: purchased Eurofins Panlab (Safety47 Safety Scan, contract panel)
T13 sequence (P22303 32-614): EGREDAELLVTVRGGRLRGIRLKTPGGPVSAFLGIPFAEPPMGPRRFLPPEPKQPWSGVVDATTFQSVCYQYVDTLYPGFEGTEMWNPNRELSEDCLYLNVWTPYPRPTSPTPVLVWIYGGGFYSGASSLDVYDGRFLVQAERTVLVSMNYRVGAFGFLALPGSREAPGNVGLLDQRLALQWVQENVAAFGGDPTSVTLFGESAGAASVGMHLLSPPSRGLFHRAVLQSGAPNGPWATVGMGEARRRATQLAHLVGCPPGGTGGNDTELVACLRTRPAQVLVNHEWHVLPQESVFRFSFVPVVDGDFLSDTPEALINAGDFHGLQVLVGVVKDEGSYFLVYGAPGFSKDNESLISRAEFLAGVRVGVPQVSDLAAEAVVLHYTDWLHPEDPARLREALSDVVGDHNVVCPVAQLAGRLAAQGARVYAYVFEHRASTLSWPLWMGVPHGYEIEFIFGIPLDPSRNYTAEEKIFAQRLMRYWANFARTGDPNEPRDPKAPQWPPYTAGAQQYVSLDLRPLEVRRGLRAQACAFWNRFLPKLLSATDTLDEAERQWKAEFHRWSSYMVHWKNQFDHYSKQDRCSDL

[15] = molecular target: T14, DAT (Homo sapiens, UniProt Q01959); experiment: Safety47 Transporter DAT; format: cell-based; conditions: Blocker; for Emax: read-out: Max Response; for IC50: read-out: RC50 (IC50)
T14 construct: purchased Eurofins Panlab (Safety47 Safety Scan, contract panel)
T14 sequence (Q01959 whole entry, species assumed): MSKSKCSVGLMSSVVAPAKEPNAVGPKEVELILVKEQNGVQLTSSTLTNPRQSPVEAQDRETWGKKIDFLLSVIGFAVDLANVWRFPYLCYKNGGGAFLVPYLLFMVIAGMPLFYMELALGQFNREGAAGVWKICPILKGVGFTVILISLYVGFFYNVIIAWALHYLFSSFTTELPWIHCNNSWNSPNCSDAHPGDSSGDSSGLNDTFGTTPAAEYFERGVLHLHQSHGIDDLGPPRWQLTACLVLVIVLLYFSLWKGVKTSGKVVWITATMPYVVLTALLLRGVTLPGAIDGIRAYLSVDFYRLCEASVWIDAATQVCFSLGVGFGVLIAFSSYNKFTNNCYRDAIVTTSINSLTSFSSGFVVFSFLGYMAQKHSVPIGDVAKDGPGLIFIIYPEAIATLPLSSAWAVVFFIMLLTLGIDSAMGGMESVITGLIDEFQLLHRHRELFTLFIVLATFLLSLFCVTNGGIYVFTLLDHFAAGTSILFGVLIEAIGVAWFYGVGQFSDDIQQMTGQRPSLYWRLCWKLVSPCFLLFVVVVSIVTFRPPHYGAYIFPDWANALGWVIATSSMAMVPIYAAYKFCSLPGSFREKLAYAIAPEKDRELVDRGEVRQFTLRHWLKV

[16] = molecular target: T15, NET (Homo sapiens, UniProt P23975); experiment: Safety47 Transporter NET; format: cell-based; conditions: Blocker; for Emax: read-out: Max Response; for IC50: read-out: RC50 (IC50)
T15 construct: purchased Eurofins Panlab Safety47 Safety Scan
T15 sequence (P23975 whole entry): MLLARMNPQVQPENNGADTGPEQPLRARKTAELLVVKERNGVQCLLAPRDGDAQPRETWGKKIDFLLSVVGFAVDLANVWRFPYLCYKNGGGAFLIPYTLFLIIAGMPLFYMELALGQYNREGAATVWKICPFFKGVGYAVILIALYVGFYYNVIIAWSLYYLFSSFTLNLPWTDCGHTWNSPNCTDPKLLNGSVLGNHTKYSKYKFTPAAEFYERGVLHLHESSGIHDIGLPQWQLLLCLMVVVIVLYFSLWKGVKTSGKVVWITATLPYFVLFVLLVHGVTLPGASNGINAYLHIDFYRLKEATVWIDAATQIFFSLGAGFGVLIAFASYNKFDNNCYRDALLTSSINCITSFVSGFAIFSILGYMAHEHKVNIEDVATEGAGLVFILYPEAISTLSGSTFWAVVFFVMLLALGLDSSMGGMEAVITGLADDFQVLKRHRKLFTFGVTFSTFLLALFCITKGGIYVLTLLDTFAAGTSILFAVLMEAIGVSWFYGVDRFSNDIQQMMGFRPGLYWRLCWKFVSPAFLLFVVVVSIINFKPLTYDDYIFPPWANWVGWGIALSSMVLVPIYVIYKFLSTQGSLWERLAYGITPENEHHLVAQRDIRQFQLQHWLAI

Compound: Cl.Fc1cc(Nc2nc(-c3ccncc3)nc3ncccc23)cc2cc[nH]c12 [BC18813, N-(7-fluoro-1H-indol-5-yl)-2-pyridin-4-ylpyrido[2,3-d]pyrimidin-4-amine hydrochloride]
- Emax ([1]; Agonist): 1.07%
- EC50 ([1]; Agonist): > 10 µM
- Emax ([1]; Antagonist): 16%
- IC50 ([1]; Antagonist): > 10 µM
- Emax ([2]; Agonist): 2.97%
- EC50 ([2]; Agonist): > 10 µM
- Emax ([2]; Antagonist): 0%
- IC50 ([2]; Antagonist): > 10 µM
- Emax ([3]; Agonist): 1.49%
- EC50 ([3]; Agonist): > 10 µM
- Emax ([3]; Antagonist): 6.52%
- IC50 ([3]; Antagonist): > 10 µM
- Emax ([4]; Agonist): 0.95%
- EC50 ([4]; Agonist): > 10 µM
- Emax ([4]; Antagonist): 25.6%
- IC50 ([4]; Antagonist): > 10 µM
- Emax ([5]; Agonist): 47.7%
- EC50 ([5]; Agonist): > 10 µM
- Emax ([5]; Antagonist): 12.2%
- IC50 ([5]; Antagonist): > 10 µM
- Curve Bottom ([6]; Agonist): 0
- Curve Top ([6]; Agonist): 100
- Hill ([6]; Agonist): 1.07
- Emax ([6]; Agonist): 61%
- EC50 ([6]; Agonist): 6.11 µM
- Emax ([6]; Antagonist): 0%
- IC50 ([6]; Antagonist): > 10 µM
- Curve Bottom ([7]; Agonist): 0
- Curve Top ([7]; Agonist): 100
- Hill ([7]; Agonist): 1.05
- Emax ([7]; Agonist): 63.6%
- EC50 ([7]; Agonist): 4.59 µM
- Emax ([7]; Antagonist): 0%
- IC50 ([7]; Antagonist): > 10 µM
- Emax ([8]; Agonist): 13%
- EC50 ([8]; Agonist): > 10 µM
- Emax ([8]; Antagonist): 0%
- IC50 ([8]; Antagonist): > 10 µM
- Max Response ([9]; Blocker): 19.98
- IC50 ([9]; Blocker): > 10 µM
- Max Response ([9]; Opener): 0.77
- EC50 ([9]; Opener): > 10 µM
- Emax [10]: 8.29%
- IC50 [10]: > 10 µM
- Emax [11]: 11.2%
- IC50 [11]: > 10 µM
- Emax [12]: 22.8%
- IC50 [12]: > 10 µM
- Emax [13]: 0.27%
- IC50 [13]: > 10 µM
- Emax [14]: 6.26%
- IC50 [14]: > 10 µM
- Emax [15]: 16.8%
- IC50 [15]: > 10 µM
- Emax [16]: 9.94%
- IC50 [16]: > 10 µM

Compound: Cl.c1ccc2c(Nc3ccc4[nH]ccc4c3)nc(-c3ccncc3)nc2c1 [BC18630, N-1H-indol-5-yl-2-pyridin-4-ylquinazolin-4-amine hydrochloride]
- Emax ([1]; Agonist): 8.97%
- EC50 ([1]; Agonist): > 10 µM
- Emax ([1]; Antagonist): 15.9%
- IC50 ([1]; Antagonist): > 10 µM
- Emax ([2]; Agonist): 1.69%
- EC50 ([2]; Agonist): > 10 µM
- Emax ([2]; Antagonist): 0%
- IC50 ([2]; Antagonist): > 10 µM
- Emax ([3]; Agonist): 0%
- EC50 ([3]; Agonist): > 10 µM
- Emax ([3]; Antagonist): 0%
- IC50 ([3]; Antagonist): > 10 µM
- Emax ([4]; Agonist): 4.44%
- EC50 ([4]; Agonist): > 10 µM
- Emax ([4]; Antagonist): 22.5%
- IC50 ([4]; Antagonist): > 10 µM
- Emax ([5]; Agonist): 31.6%
- EC50 ([5]; Agonist): > 10 µM
- Emax ([5]; Antagonist): 0.25%
- IC50 ([5]; Antagonist): > 10 µM
- Emax ([6]; Agonist): 0.8%
- EC50 ([6]; Agonist): > 10 µM
- Emax ([6]; Antagonist): 26.9%
- IC50 ([6]; Antagonist): > 10 µM
- Emax ([7]; Agonist): 27.8%
- EC50 ([7]; Agonist): > 10 µM
- Emax ([7]; Antagonist): 0%
- IC50 ([7]; Antagonist): > 10 µM
- Emax ([8]; Agonist): 9.36%
- EC50 ([8]; Agonist): > 10 µM
- Emax ([8]; Antagonist): 5.7%
- IC50 ([8]; Antagonist): > 10 µM
- Max Response ([9]; Blocker): 27.61
- IC50 ([9]; Blocker): > 10 µM
- Max Response ([9]; Opener): 0.97
- EC50 ([9]; Opener): > 10 µM
- Emax [10]: 30%
- IC50 [10]: > 10 µM
- Emax [11]: 49.1%
- IC50 [11]: > 10 µM
- Emax [12]: 20.8%
- IC50 [12]: > 10 µM
- Emax [13]: 13.7%
- IC50 [13]: > 10 µM
- Emax [14]: 21.2%
- IC50 [14]: > 10 µM
- Emax [15]: 37%
- IC50 [15]: > 10 µM
- Emax [16]: 0%
- IC50 [16]: > 10 µM
